Assay results published in PubChem BioAssay AID1919010 (Molecular Pharmacology Branch, DTP, NCI, 2023).
Values belong to the molecule of their own block, whether it stands above or below them.

Test system: Hs578T complex spheroid growth, percent test/control
Assay: Anticancer human tumor Hs578T cell line growth inhibition [AhR];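 further: luminescent viability signal as a proxy for spheroid growth; spheroids exposed to agents for one week after three days of growth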
Conditions: for IC50: curve of first compound; for viability, T/C: stronger effect = lower value
Excerpt: Multicellular complex tumor spheroid response to aryl hydrocarbon receptor antagonists in combination with a variety of drugs and investigational agents in selected tumor cell lines
The current study was undertaken to assess response to aryl hydrocarbon receptor antagonists in combination with standard-of-care drugs and investigational agents in solid tumor complex spheroid models. Complex spheroids include a stromal component modeled by human endothelial cells (HUVEC) and fibroblasts modeled by human mesenchymal stem cells (MSCs). The concentration ranges selected for each drug and investigational agent were based upon clinically achievable concentrations if the clinical Cmax of the agent was known.
Compounds. The drugs and investigational agents: BAY 2416964 (NSC825713), GNF351 (NSC835774), CH-223191 (NSC835775), CPI-455 (NSC825282), aza-TdCyd (NSC777586), decitabine (NSC127716), belinostat (NSC758774), entinostat (NSC756642), pevonedistat (NSC761192), tazemetostat (NSC777109), talazoparib (NSC765396), olaparib (NSC753686), selinexor (NSC780203), nedisertib (M3814, NSC802822), bortezomib (NSC756655), venetoclax (NSC766270), doxorubicin (NSC123127), elimusertib (BAY189344, NSC800525), ceralasertib (AZD6738, NSC777638), TAK-243 (NSC785004), alisertib (NSC759677), etoposide (NSC141540), topotecan (NSC609699), eribulin (NSC707389), gemcitabine (NSC613327), carboplatin (NSC241240), cisplatin (NSC119875), and SN-38 (NSC673596) were obtained from the National Cancer Institute (NCI) Developmental Therapeutics Program Chemical Repository (32). The FDA-approved anticancer drug set is available from the Developmental Therapeutics Program at https://dtp.cancer.gov/organization/dscb/obtaining/available plates.htm. […] The stock solutions were prepared in dimethyl sulfoxide (DMSO, Sigma-Aldrich, St. Louis, MO, cat. D2650), except for the platinum compounds which were prepared in saline (Quality Biological, Gaithersburg, MD, cat. 114-055-101), at 800-fold the tested concentration and stored at -70 degrees C prior to their use. All drugs and investigational agents were tested over a range starting from a high concentration at or near the clinical Cmax and decreasing in half-log increments. If the clinical Cmax for an agent had not been determined, the highest concentration tested was 10 microM (Table 1).
Cell Culture. All cells were maintained in an incubator at 37 degrees C and 5% CO2 with 95% humidity. The PDC lines were cultured according to standard operating procedures established by the NCI PDMR (https://pdmr.cancer.gov). Briefly, all PDCs were thawed and cultured in Matrigel-coated flasks prepared with a working solution of 1X Ham's F-12 nutrient mix, without supplementation (Invitrogen, Waltham, MA, cat. 11765054), 100 U/mL penicillin-streptomycin (Invitrogen, cat. 15140122), and 2.5% Matrigel (Corning Inc., Corning, NY, cat. 354248) for the first three passages. All PDCs were cultured in complete DMEM/F-12 media containing advanced DMEM/F-12 (Invitrogen, cat. 12634028), 4.9% defined fetal bovine serum, heat inactivated (HyClone Laboratories Inc., Logan, UT, cat. SH30070.03HI), 389 ng/mL hydrocortisone (Sigma-Aldrich, cat. H4001), 9.7 ng/mL human EGF recombinant protein (Invitrogen, cat. PHG0313), 23.4 microg/mL adenine (Sigma-Aldrich, cat. A2786), 97.3 U/mL penicillin-streptomycin (Invitrogen, cat. 15140122), 1.9 mM L-glutamine (Invitrogen, cat. 25030081), and 9.7 microM Y-27632 dihydrochloride (Tocris Bioscience, Bristol, United Kingdom, cat. 1254). The PDCs were cultured in complete DMEM/F12 media without 10 microM Y-27632 dihydrochloride for at least two passages prior to the screen. The established cell lines NCI-H1341 and […] were cultured in DMEM/F-12, HEPES (Invitrogen, cat. 11330032), 5% defined fetal bovine serum (HyClone Laboratories Inc., cat. SH30070.03), ITS premix universal culture supplement [insulin (5 microg/mL), transferrin (5 microg/mL), and selenious acid (5 ng/mL)] […]

[1] = second compound 0.1 µM, first compound 0.0316 µM
[2] = second compound 0.1 µM, first compound 0.1 µM
[3] = second compound 0.1 µM, first compound 0.316 µM
[4] = second compound 0.1 µM, first compound 1 µM
[5] = second compound 0.1 µM, first compound 3.16 µM
[6] = second compound 0.1 µM, first compound 10 µM
[7] = second compound 0.316 µM, first compound 0.0316 µM
[8] = second compound 0.316 µM, first compound 0.1 µM
[9] = second compound 0.316 µM, first compound 0.316 µM
[10] = second compound 0.316 µM, first compound 1 µM
[11] = second compound 0.316 µM, first compound 3.16 µM
[12] = second compound 0.316 µM, first compound 10 µM
[13] = second compound 1 µM, first compound 0.0316 µM
[14] = second compound 1 µM, first compound 0.1 µM
[15] = second compound 1 µM, first compound 0.316 µM
[16] = second compound 1 µM, first compound 1 µM
[17] = second compound 1 µM, first compound 3.16 µM
[18] = second compound 1 µM, first compound 10 µM
[19] = second compound 3.16 µM, first compound 0.0316 µM
[20] = second compound 3.16 µM, first compound 0.1 µM
[21] = second compound 3.16 µM, first compound 0.316 µM
[22] = second compound 3.16 µM, first compound 1 µM
[23] = second compound 3.16 µM, first compound 3.16 µM
[24] = second compound 3.16 µM, first compound 10 µM
[25] = second compound 10 µM, first compound 0.0316 µM
[26] = second compound 10 µM, first compound 0.1 µM
[27] = second compound 10 µM, first compound 0.316 µM
[28] = second compound 10 µM, first compound 1 µM
[29] = second compound 10 µM, first compound 3.16 µM
[30] = second compound 10 µM, first compound 10 µM

- IC50 (second compound 0.1 µM): 4.72 nM
- IC50 (second compound 0.316 µM): 4.44 nM
- IC50 (second compound 1 µM): 4.61 nM
- IC50 (second compound 3.16 µM): 5.03 nM
- IC50 (second compound 10 µM): 3.79 nM
SMILES: CC(C)CC(NC(=O)C(Cc1ccccc1)NC(=O)c1cnccn1)B(O)O (stereo not given) + CC(CO)NC(=O)c1cc(-c2ccc(Cl)cc2)nn(-c2cnn(C)c2)c1=O
- viability, T/C (second compound 0.1 µM, first compound 0.000949 µM): 97.9%
- viability, T/C (second compound 0.1 µM, first compound 0.003 µM): 75.7%
- viability, T/C (second compound 0.1 µM, first compound 0.00949 µM): 10.4%
- viability, T/C (second compound 0.1 µM, first compound 0.03 µM): 0.34%
- viability, T/C (second compound 0.1 µM, first compound 0.0949 µM): 0.56%
- viability, T/C (second compound 0.1 µM, first compound 0.3 µM): 0.73%
- viability, T/C (second compound 0.316 µM, first compound 0.000949 µM): 109%
- viability, T/C (second compound 0.316 µM, first compound 0.003 µM): 72.6%
- viability, T/C (second compound 0.316 µM, first compound 0.00949 µM): 6.27%
- viability, T/C (second compound 0.316 µM, first compound 0.03 µM): 0.48%
- viability, T/C (second compound 0.316 µM, first compound 0.0949 µM): 0.41%
- viability, T/C (second compound 0.316 µM, first compound 0.3 µM): 0.41%
- viability, T/C (second compound 1 µM, first compound 0.000949 µM): 102%
- viability, T/C (second compound 1 µM, first compound 0.003 µM): 72%
- viability, T/C (second compound 1 µM, first compound 0.00949 µM): 13.1%
- viability, T/C (second compound 1 µM, first compound 0.03 µM): 0.32%
- viability, T/C (second compound 1 µM, first compound 0.0949 µM): 0.27%
- viability, T/C (second compound 1 µM, first compound 0.3 µM): 0.39%
- viability, T/C (second compound 3.16 µM, first compound 0.000949 µM): 102%
- viability, T/C (second compound 3.16 µM, first compound 0.003 µM): 80.1%
- viability, T/C (second compound 3.16 µM, first compound 0.00949 µM): 13.2%
- viability, T/C (second compound 3.16 µM, first compound 0.03 µM): 0.29%
- viability, T/C (second compound 3.16 µM, first compound 0.0949 µM): 0.26%
- viability, T/C (second compound 3.16 µM, first compound 0.3 µM): 0.35%
- viability, T/C (second compound 10 µM, first compound 0.000949 µM): 85.6%
- viability, T/C (second compound 10 µM, first compound 0.003 µM): 59.8%
- viability, T/C (second compound 10 µM, first compound 0.00949 µM): 11.6%
- viability, T/C (second compound 10 µM, first compound 0.03 µM): 0.72%
- viability, T/C (second compound 10 µM, first compound 0.0949 µM): 0.38%
- viability, T/C (second compound 10 µM, first compound 0.3 µM): 0.53%

- IC50 (second compound 0.1 µM): 1610 nM
- IC50 (second compound 0.316 µM): 1700 nM
- IC50 (second compound 1 µM): 1660 nM
- IC50 (second compound 3.16 µM): 1720 nM
- IC50 (second compound 10 µM): 1260 nM
SMILES: Nc1ccccc1NC(=O)c1ccc(CNC(=O)OCc2cccnc2)cc1 + CC(CO)NC(=O)c1cc(-c2ccc(Cl)cc2)nn(-c2cnn(C)c2)c1=O
- viability, T/C [1]: 124%
- viability, T/C [2]: 122%
- viability, T/C [3]: 108%
- viability, T/C [4]: 68.3%
- viability, T/C [5]: 24%
- viability, T/C [6]: 1.8%
- viability, T/C [7]: 111%
- viability, T/C [8]: 118%
- viability, T/C [9]: 111%
- viability, T/C [10]: 65.8%
- viability, T/C [11]: 30%
- viability, T/C [12]: 1.83%
- viability, T/C [13]: 121%
- viability, T/C [14]: 118%
- viability, T/C [15]: 112%
- viability, T/C [16]: 64.3%
- viability, T/C [17]: 29.6%
- viability, T/C [18]: 2.16%
- viability, T/C [19]: 115%
- viability, T/C [20]: 118%
- viability, T/C [21]: 109%
- viability, T/C [22]: 70.9%
- viability, T/C [23]: 25.9%
- viability, T/C [24]: 2.04%
- viability, T/C [25]: 111%
- viability, T/C [26]: 106%
- viability, T/C [27]: 97.2%
- viability, T/C [28]: 58.2%
- viability, T/C [29]: 16%
- viability, T/C [30]: 0.84%

- IC50 (second compound 0.1 µM): 2590 nM
- IC50 (second compound 0.316 µM): 2510 nM
- IC50 (second compound 1 µM): 2780 nM
- IC50 (second compound 3.16 µM): 2420 nM
- IC50 (second compound 10 µM): 2290 nM
SMILES: O=C(C=Cc1cccc(S(=O)(=O)Nc2ccccc2)c1)NO + CC(CO)NC(=O)c1cc(-c2ccc(Cl)cc2)nn(-c2cnn(C)c2)c1=O
- viability, T/C [1]: 112%
- viability, T/C [2]: 113%
- viability, T/C [3]: 102%
- viability, T/C [4]: 82.6%
- viability, T/C [5]: 43.2%
- viability, T/C [6]: 2.61%
- viability, T/C [7]: 115%
- viability, T/C [8]: 116%
- viability, T/C [9]: 103%
- viability, T/C [10]: 82.5%
- viability, T/C [11]: 41.8%
- viability, T/C [12]: 2%
- viability, T/C [13]: 109%
- viability, T/C [14]: 117%
- viability, T/C [15]: 106%
- viability, T/C [16]: 89.8%
- viability, T/C [17]: 45.1%
- viability, T/C [18]: 2.32%
- viability, T/C [19]: 106%
- viability, T/C [20]: 113%
- viability, T/C [21]: 107%
- viability, T/C [22]: 80.8%
- viability, T/C [23]: 41.1%
- viability, T/C [24]: 2.02%
- viability, T/C [25]: 93.5%
- viability, T/C [26]: 94.8%
- viability, T/C [27]: 93.6%
- viability, T/C [28]: 70.5%
- viability, T/C [29]: 42.1%
- viability, T/C [30]: 1.62%
